In PMC12000319, “Proton conductance by human uncoupling protein 1 is inhibited by purine and pyrimidine nucleotides” (The EMBO Journal, 2025):
Several values for one entry are separate records, joined by “and”; a condition that tells them apart may be missing. Equal entries are not always repeated. Where two headings read alike, the source gives them in different places.

Key:
[1] = tested on: UCP1; parameters: method as in Heaton and Nicholls, 1977; Divakaruni et al, 2012; conditions: whole mitochondria; ref Heaton and Nicholls, 1977; Divakaruni et al, 2012; cited from earlier work
[2] = target: T1, UCP1 (Homo sapiens, UniProt P25874); test: Differential scanning fluorimetry (nanoDSF) thermal stability shift assay; assay type: binding; conditions: for temperature shift (ΔTm): 1 mM nucleotide, pH 6.0, detergent-solubilised UCP1, mean of three biological repeats; for ΔTm at 1000 µM: read-out: thermal shift (ΔTm)
T1 construct: His8 (N, cleaved yes); Factor Xa protease cleavage site (N, cleaved yes); made in house; host or cells: Saccharomyces cerevisiae strain W303.1B
T1 sequence (P25874 1-307): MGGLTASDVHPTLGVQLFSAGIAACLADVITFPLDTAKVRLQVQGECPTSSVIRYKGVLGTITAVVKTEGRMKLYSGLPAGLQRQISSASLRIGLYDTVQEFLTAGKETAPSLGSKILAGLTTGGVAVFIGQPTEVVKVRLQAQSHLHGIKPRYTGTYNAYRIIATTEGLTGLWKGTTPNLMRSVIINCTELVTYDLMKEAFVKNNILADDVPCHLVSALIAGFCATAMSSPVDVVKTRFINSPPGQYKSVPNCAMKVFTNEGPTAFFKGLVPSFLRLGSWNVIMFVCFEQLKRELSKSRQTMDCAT

[3] = target: T2, human DIC (SLC25A10) (Homo sapiens, UniProt Q9UBX3); test: as above; assay type: binding; conditions: 1 mM nucleotide, pH 6.0, single repeats (source data Fig. 4A)
T2 construct: His8 (N, cleaved yes); Factor Xa protease cleavage site (N, cleaved yes); made in house; host or cells: Saccharomyces cerevisiae protease-deficient strain BJ2186
T2 sequence (Q9UBX3 1-287): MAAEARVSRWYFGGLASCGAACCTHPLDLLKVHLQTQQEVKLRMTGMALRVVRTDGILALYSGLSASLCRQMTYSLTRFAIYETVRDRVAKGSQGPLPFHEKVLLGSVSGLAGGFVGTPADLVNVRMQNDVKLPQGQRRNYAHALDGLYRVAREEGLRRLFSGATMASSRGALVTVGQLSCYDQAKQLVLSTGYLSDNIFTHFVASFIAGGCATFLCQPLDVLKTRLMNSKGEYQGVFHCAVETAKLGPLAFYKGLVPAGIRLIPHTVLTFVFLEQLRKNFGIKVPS
From the text: UCP1 is phylogenetically related to mitochondrial dicarboxylate carriers, gaining thermogenic properties as a later evolutionary development (Hughes et al, [2009]; Robinson et al, [2008]). The mitochondrial dicarboxylate carrier (DIC, SLC25A10) and oxoglutarate carrier (OGC, SLC25A11) are most closely related to UCP1 (Gaudry et al, [2019]; Hughes et al, [2009]) and share many residues involved in nucleotide binding in UCP1, such as the arginine triplet at the contact points, R92 and Q85 (Jones et al, [2024]). Given the similarity of the central cavity of UCP1, OGC and DIC, we tested whether the dicarboxylate carriers have the ability to bind nucleotides. For this purpose, we purified human DIC and OGC, and tested whether nucleotides were able to generate a thermostability shift, as observed for their physiological substrates (Pyrihová et al, [2024]). However, all tested nucleotides caused a negligible shift with both DIC or OGC at all pH values tested between 6.0 and 8.0 (Fig. 4A; Appendix Fig. S5). Thus, despite having many residues in common (Fig. 4B–D), UCP1 has evolved to have a few specific residues that allow high-affinity binding of nucleotides without a strong selection for nucleobase.
Differential scanning fluorimetry (nanoDSF) (Alexandrov et al, [2008]) was carried out with 2 µg UCP1, DIC or OGC protein (100 mM MES/HEPES, pH range 6.0–8.0, 25 mM NaCl, 1 mM TCEP, 0.01% lauryl maltose neopentyl glycol and 0.01 mg/mL tetraoleoyl cardiolipin) and, when required, 1 mM nucleotide, as indicated. The proteins have the following number of tryptophans: UCP1 (two); OGC (two); DIC (one). The samples were loaded into nanoDSF-grade standard glass capillaries. The temperature was increased by […] every minute from 25 to 95 °C, the intrinsic fluorescence was measured in a Prometheus NT.48 nanoDSF device, and the apparent Tm was calculated with the PR.ThermControl software (NanoTemper Technologies).

[4] = target: T1, UCP1; test: Isothermal titration calorimetry of nucleotide binding; parameters: isotherm data point (enthalpy change per injection): unit not given here; conditions: for binding affinity to UCP1 (in words) / Kd: ITC; for isotherm data point (enthalpy change per injection): representative isotherm;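 as to all read-outs here: purified human UCP1 in cacodylate buffer with lauryl maltose neopentyl glycol and cardiolipin, titrated with nucleotides, isotherms fitted by one-site model yielding ΔH, Kd and stoichiometry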
[5] = target: T3, human uncoupling protein 1 (human, UniProt P25874); test: cryo-EM structure; UCP1, PMb65 and PMb71 mixed stoichiometrically, overnight at 4 °C; complex separated by SEC (20 mM MES pH 6.0, 150 mM NaCl, 0.02% lauryl maltose neopentyl glycol, 0.02 mg/mL tetraoleoyl cardiolipin, 1 mM TCEP); 2 mM UTP and 2 mM D-maltose added; 3.03 Å; conditions: both partners purified
T3 construct: human uncoupling protein 1 (UCP1, SLC25A7), Uniprot P25874; Detergent-solubilised, with tetraoleoyl cardiolipin; also called UCP1; SLC25A7; source: Saccharomyces cerevisiae W303.1B, purified from mitochondria (Ni Sepharose, on-column Factor Xa cleavage); not shown: His8, N-terminal, cleaved

[6] = pH 6, 1 mM nucleotide, pH 6.0, single repeats (source data Fig. 1D)
[7] = pH 6.5, 1 mM nucleotide, pH 6.5, single repeats (source data Fig. 1D)
[8] = pH 7, 1 mM nucleotide, pH 7.0, single repeats (source data Fig. 1D)
[9] = pH 6.0, 20 °C, mean ± standard deviation of three biological repeats (Fig. 2A-E)
[10] = single biological repeats (source data Fig. 2F)
[11] = Molar ratio (Nucleotide/UCP) 0.120417, pH 6.0, 20 °C
[12] = Molar ratio (Nucleotide/UCP) 0.181226, pH 6.0, 20 °C
[13] = Molar ratio (Nucleotide/UCP) 0.242439, pH 6.0, 20 °C
[14] = Molar ratio (Nucleotide/UCP) 0.304059, pH 6.0, 20 °C
[15] = Molar ratio (Nucleotide/UCP) 0.366087, pH 6.0, 20 °C
[16] = Molar ratio (Nucleotide/UCP) 0.428528, pH 6.0, 20 °C
[17] = Molar ratio (Nucleotide/UCP) 0.491383, pH 6.0, 20 °C
[18] = Molar ratio (Nucleotide/UCP) 0.554656, pH 6.0, 20 °C
[19] = Molar ratio (Nucleotide/UCP) 0.618348, pH 6.0, 20 °C
[20] = Molar ratio (Nucleotide/UCP) 0.682464, pH 6.0, 20 °C
[21] = Molar ratio (Nucleotide/UCP) 0.747006, pH 6.0, 20 °C
[22] = Molar ratio (Nucleotide/UCP) 0.811976, pH 6.0, 20 °C
[23] = Molar ratio (Nucleotide/UCP) 0.877378, pH 6.0, 20 °C
[24] = Molar ratio (Nucleotide/UCP) 0.943214, pH 6.0, 20 °C
[25] = Molar ratio (Nucleotide/UCP) 1.00949, pH 6.0, 20 °C
[26] = Molar ratio (Nucleotide/UCP) 1.0762, pH 6.0, 20 °C
[27] = Molar ratio (Nucleotide/UCP) 1.14336, pH 6.0, 20 °C
[28] = Molar ratio (Nucleotide/UCP) 1.21096, pH 6.0, 20 °C
[29] = Molar ratio (Nucleotide/UCP) 1.27901, pH 6.0, 20 °C
[30] = Molar ratio (Nucleotide/UCP) 1.34751, pH 6.0, 20 °C
[31] = Molar ratio (Nucleotide/UCP) 1.41647, pH 6.0, 20 °C
[32] = Molar ratio (Nucleotide/UCP) 1.48589, pH 6.0, 20 °C
[33] = Molar ratio (Nucleotide/UCP) 1.55577, pH 6.0, 20 °C
[34] = Molar ratio (Nucleotide/UCP) 1.62611, pH 6.0, 20 °C
[35] = Molar ratio (Nucleotide/UCP) 1.69692, pH 6.0, 20 °C
[36] = Molar ratio (Nucleotide/UCP) 1.76819, pH 6.0, 20 °C
[37] = Molar ratio (Nucleotide/UCP) 1.83995, pH 6.0, 20 °C
[38] = Molar ratio (Nucleotide/UCP) 1.91217, pH 6.0, 20 °C
[39] = Molar ratio (Nucleotide/UCP) 1.98488, pH 6.0, 20 °C

Row | Molecule | competition with GDP binding [1] | temperature shift (ΔTm) [2] [°C] | ΔTm at 1000 µM [2, 6] [°C] | ΔTm at 1000 µM [2, 7] [°C] | ΔTm at 1000 µM [2, 8] [°C] | binding affinity to UCP1 (in words) [4] | Kd [4, 9] [µM] | Kd [4, 10] | isotherm data point (enthalpy change per injection) [4, 11] | isotherm data point (enthalpy change per injection) [4, 12] | isotherm data point (enthalpy change per injection) [4, 13] | isotherm data point (enthalpy change per injection) [4, 14] | isotherm data point (enthalpy change per injection) [4, 15] | isotherm data point (enthalpy change per injection) [4, 16] | isotherm data point (enthalpy change per injection) [4, 17] | isotherm data point (enthalpy change per injection) [4, 18] | isotherm data point (enthalpy change per injection) [4, 19] | isotherm data point (enthalpy change per injection) [4, 20] | isotherm data point (enthalpy change per injection) [4, 21] | isotherm data point (enthalpy change per injection) [4, 22] | also measured
1 | Nc1ccn([C@@H]2O[C@H](COP(=O)(O)OP(=O)(O)O)[C@@H](O)[C@H]2O)c(=O)n1 [CDP] | unable to displace the binding of GDP |  |  |  |  |  |  |  |  |  |  |  |  |  |  |  |  |  |  |  | 
2 | Nc1ccn(C2OC(COP(=O)(O)OP(=O)(O)OP(=O)(O)O)C(O)C2O)c(=O)n1 (centres unmarked) [CTP] | unable to displace the binding of GDP | 12.5 | 12.3 | 7.9 | 4.4 | lowest affinity | 4.85 ± 0.69 | 5.47 µM and 4.96 µM and 4.11 µM | -22.2743 | -21.186 | -19.9722 | -20.0539 | -20.6988 | -18.255 | -16.7607 | -16.5202 | -14.6191 | -13.3617 | -10.6677 | -10.8499 | change in apparent melting temperature (ΔTm) of hDIC [3]: 0.0; isotherm data point (enthalpy change per injection) [4, 23]: -10.2913; isotherm data point (enthalpy change per injection) [4, 24]: -8.027; isotherm data point (enthalpy change per injection) [4, 25]: -6.97; isotherm data point (enthalpy change per injection) [4, 26]: -6.038; isotherm data point (enthalpy change per injection) [4, 27]: -5.024; isotherm data point (enthalpy change per injection) [4, 28]: -4.446; isotherm data point (enthalpy change per injection) [4, 29]: -2.802; isotherm data point (enthalpy change per injection) [4, 30]: -2.027; isotherm data point (enthalpy change per injection) [4, 31]: -1.98; isotherm data point (enthalpy change per injection) [4, 32]: -0.1226; isotherm data point (enthalpy change per injection) [4, 33]: -0.8262; isotherm data point (enthalpy change per injection) [4, 34]: -0.604; isotherm data point (enthalpy change per injection) [4, 35]: -1.2037; isotherm data point (enthalpy change per injection) [4, 36]: -0.3877; isotherm data point (enthalpy change per injection) [4, 37]: 0.4921; isotherm data point (enthalpy change per injection) [4, 38]: -0.1525; isotherm data point (enthalpy change per injection) [4, 39]: -0.1288
3 | Nc1nc2c(ncn2[C@@H]2O[C@H](COP(=O)(O)OP(=O)(O)OP(=O)(O)O)[C@@H](O)[C@H]2O)c(=O)[nH]1 [GTP, guanosine triphosphate] |  | 16.2 | 16 | 12 | 7.8 | intermediary affinities | 3.77 ± 0.12 | 3.68 µM and 3.9 µM and 3.73 µM | -20.3045 | -19.4276 | -18.5029 | -18.707 | -18.3445 | -17.3071 | -16.412 | -17.0687 | -15.1625 | -14.4377 | -12.3158 | -11.9274 | ΔTm at 1000 µM ([2]; pH 7.5, 1 mM nucleotide, pH 7.5, single repeats (source data Fig. 1D)): 3.6 °C; isotherm data point (enthalpy change per injection) [4, 23]: -11.0392; isotherm data point (enthalpy change per injection) [4, 24]: -8.777; isotherm data point (enthalpy change per injection) [4, 25]: -7.389; isotherm data point (enthalpy change per injection) [4, 26]: -6.878; isotherm data point (enthalpy change per injection) [4, 27]: -5.2039; isotherm data point (enthalpy change per injection) [4, 28]: -4.2804; isotherm data point (enthalpy change per injection) [4, 29]: -2.298; isotherm data point (enthalpy change per injection) [4, 30]: -2.606; isotherm data point (enthalpy change per injection) [4, 31]: -2.5907; isotherm data point (enthalpy change per injection) [4, 32]: -0.9936; isotherm data point (enthalpy change per injection) [4, 33]: -1.473; isotherm data point (enthalpy change per injection) [4, 34]: -0.9907; isotherm data point (enthalpy change per injection) [4, 35]: -0.3592; isotherm data point (enthalpy change per injection) [4, 36]: -0.2978; isotherm data point (enthalpy change per injection) [4, 37]: 0.5154; isotherm data point (enthalpy change per injection) [4, 38]: 0.06373; isotherm data point (enthalpy change per injection) [4, 39]: 0.2135
4 | Pro-macrobody PMb65 (VHH, llama nanobody CA9865; Expressed from the vector pBXNPHM3 (Addgene 110099); also called CA9865; source: E. coli MC1061, purified (Ni-NTA, 3C cleavage, Strep-Tactin XT); not shown: His-tagged MBP, N-terminal, cleaved) VHH: QVQLVESGGGLVQAGGSLRLSCAPSGRTSSTYTMGWFRQAPGKEREFVAAISWTGTPYYADSVKGRFTISRDNAKNTVYLQMNSLKPEDTAVYYCAAARPGLFIFVSDYARTAKYDYWGQGTQVTVPP |  |  |  |  |  |  |  |  |  |  |  |  |  |  |  |  |  |  |  |  | binding result [5]: binds
